Measurements published in patent US11306083B2, “Amide substituted imidazo[4,5-C]quinoline compounds with a branched chain linking group for use as an immune response modifier” (3M INNOVATIVE PROPERTIES COMPANY, priority 2017, dated 2022).

What was measured:
Type in all cases: cell-based
Conditions in all cases: 21-24 hrs, lowest concentration giving cytokine at least 2× negative control, tested 0.01-30 micromolar
[1] = test system: IFN-gamma induction in human peripheral blood mononuclear cells (PBMC); experiment: Cytokine induction in human cells (PBMC): IFN-gamma by multiplex bead assay
Method: (§1) Cytokine Induction in Human Cells
(§2) Whole blood was obtained from healthy human donors and collected by venipuncture into vacutainer tubes or syringes containing EDTA. Human peripheral blood mononuclear cells (PBMC) were purified from the whole blood by density gradient centrifugation. Histopaque 1077 (15 mL, Sigma, St. Louis, Mo.) was transferred to 6×50 mL sterile polypropylene conical tubes. The Histopaque was overlayed with 15-25 mL of blood diluted 1:2 in Hank's Balanced Salts Solution (HBSS) (Gibco, Life Technology, Grand Island N.Y.). The tubes were then centrifuged at 1370 rpm for 30 minutes at 20° C., with no brake (400×g, GH 3.8A Rotor).
(§3) The interface (buffy coat) containing the PBMC was collected and placed in a new sterile 50 mL conical polypropylene centrifuge tube. The PBMC were mixed with an equal volume of HBSS (about 20 mL from the interface and about 20 mL of HBSS), and then centrifuged at 1090 rpm, 10 min, 20° C., with brake (270×g, GH 3.8A Rotor). After completing centrifugation, the cells were resuspended in 2-3 mL ACK Red blood cell lysis buffer (ammonium chloride potassium solution, Gibco, Life Technology) and incubated for 2-5 minutes at 20° C. […]
(§4) The number of viable cells was determined by counting with a Miltenyi FACS instrument (Miltenyi Biotec Inc., San Diego, Calif.) or by using a hemacytometer. […] Ten microliters of the diluted cells were then applied to the hemacytometer, and the number of viable PBMC were determined by microscopy. […]
(§5) IFN-alpha cytokine levels (pg/mL) were measured by ELISA (human IFN-α, pan specific, Mabtech, Cincinnati, Ohio). IFN-gamma and TNF-alpha levels (pg/mL) were measured by multiplex bead assay (magnetic beads, R & D Systems Minneapolis, Minn.) according to the manufacturer's instructions.
(§6) Specifically, the minimum effective concentration of each compound (micromolar) was determined as the lowest concentration of the compound that induced a measured cytokine response at a level ([…]) that was at least 2× greater than that observed with the negative control wells.

[2] = test system: TNF-alpha induction in human peripheral blood mononuclear cells (PBMC); experiment: Cytokine induction in human cells (PBMC): TNF-alpha by multiplex bead assay
Method: as §1, §2, §3, §4, §5, §6

[3] = test system: IFN-alpha induction in human peripheral blood mononuclear cells (PBMC); experiment: Cytokine induction in human cells (PBMC): IFN-alpha by ELISA
Method: as §1, §2, §3, §4, §5, §6

Row | SMILES | MEC to Induce Cytokine IFN-gamma [1] [µM] | MEC to Induce Cytokine TNF-alpha [2] [µM] | MEC to Induce Cytokine IFN-alpha [3] [µM]
1 | CCCCCCCCCCCCCCCCCC(=O)NCCC[C@@H](COCC)n1cnc2c(N)nc3ccccc3c21 [Example 1, N-[(4S)-4-(4-aminoimidazo[4,5-c]quinolin-1-yl)-5-ethoxy-pentyl]octadecanamide] | 1.1 | ≤0.01 | ≤0.01
2 | CCCCCCCCCCCCCC(=O)NCCC[C@@H](COCC)n1cnc2c(N)nc3ccccc3c21 [Example 2, N-[(4S)-4-(4-aminoimidazo[4,5-c]quinolin-1-yl)-5-ethoxy-pentyl]tetradecanamide] | 0.04 | ≤0.01 | ≤0.01
3 | CCCCCCCCCC(=O)NCCC[C@@H](COCC)n1cnc2c(N)nc3ccccc3c21 [Example 3, N-[(4S)-4-(4-aminoimidazo[4,5-c]quinolin-1-yl)-5-ethoxy-pentyl]decanamide] | 0.04 | ≤0.01 | ≤0.01
